Laboratory results taken from US20040019092A1, “Non-peptide somatostatin receptor ligands” (priority 2001, published 2004).

Experiments:
GH secretion [1] = experiment: Unanesthetized estradiol primed male rats, oral by gavage: GH; type: in vivo, rat
Protocol: The inhibitory effect of the compounds on GH release may also be examined after oral application to male rats with oestradiol implants. This test is carried out as follows.
A loop (length 50 mmØ3 mm) of silastic with 50 mg of oestradiol is implanted under the dorsal skin of anaesthetized male OFA rats that have a weight of ca. 300 g. At various times (1 to 6 months later), these animals, in a fasted state, are used repeatedly for tests. The test substances are active in this test at doses from 0.1 to 5 mg/kg, when GH level in the blood serum is determined by radio-immunoassay 1 and 2 hours after oral administration.
(§1) Table 5 summarizes the results obtained in the estradiol primed male rats that received the compounds orally by gavage. These rats have stabilized elevated GH plasma levels as well as increased prolactin levels. In contrast to normal untreated rats, who's prolactin secretion is not sensitive to the inhibitory effect of somatostain, in these rats the prolactin secretion is inhibited to a similar degree as the GH secretion. Therefore, the inhibitory effect can be measured on 2 different parameters, GH and prolactin. The mean enteral absorption and activity of the respective compounds are shown.

prolactin secretion = experiment: Unanesthetized estradiol primed male rats, oral by gavage: prolactin; type: in vivo, rat
From the text: as §1

[2] = test system: GHRH stimulated GH secretion; experiment: GH secretion, rat in urethan anesthesia, i.v. single injection + repeated GHRH stimulation; type: in vivo
GH secretion [3] = experiment: GH secretion in vivo, rat, subcutaneous application, 1 h (basal); details: rat, basal GH secretion, 1 h after subcutaneous application
Protocol: (§2) Animals, anesthesia: Male rats of a Sprague Dawley strain (Ico:OFA-SD, Iffa-Credo, F-Lyon) of 200-300 g body weight were used. They were kept under standardized conditions and were anesthetized with pentobarbital-sodium (Siegfried, CH Zofingen), 60 mg/kg i.p. for subcutaneous and intraduodenal applications. Animals designed for an infusion experiment were anesthetized with urethane (Siegfried, CH Zofingen), 1.2 g/kg i.p.
(§3) Compounds: The compounds were dissolved, optionally with the aid of one or more of the following adjuncts:
(§4) Stock solutions of the compounds were prepared in water with the addition of the necessary adjunct(s). Further dilutions were prepared allowing 5 mL/kg for subcutaneous application, 2 mL for intraduodenal (i.d.) application or 4.5 mL/kg for intravenous infusion. The solutions for the intravenous application/infusion were made isotonic by addition of glucose to a final concentration of 5%.
(§5) Applications were made, or, in the case of infusion, started, approximately 10 minutes after induction of anesthesia. No further treatment followed subcutaneous or intraduodenal application. Ten, twenty-five and fifty-five minutes after start of the intravenous infusion the GH secretion was stimulated with repeated intravenous injections of the potent GHRH analog, D-Ala2 GHRH1-29NH2, 1 μg/kg.
(§6) One hour after subcutaneous or intraduodenal application of the compounds, blood was collected from the trunk after decapitation. In the case of application by infusion, 5 minutes after each application of GHRH, a blood sample of 0.8 mL was taken from a V. jugularis and mixed with EDTA (Eppendorf tubes TOM14, Milian, CH Geneva). The blood samples were kept on ice and spun in a cooled centrifuge. The serum or plasma was separated and frozen.
(§7) Statistics: In each experiment, 4-5 animals were used per dose, with 6 to 8 animals as the control group that received the vehicle. The GH serum/plasma levels were averaged, the mean of the treated groups expressed in percent of the control group and the ID50-value for the inhibition of the secretion was determined graphically (log-probit) for each experiment. In most experiments with enteral (intraduodenal) application only 1 dose, 10 mg/kg, was given. […] Only inhibitions between 20 and 80% were considered reliable.
(§8) Two to four experiments were performed. In the case of proper dose response curves, allowing the determination of an ID50 values were averaged logarithmically. In the cases of single dose-experiments, the GH value in percent of control were averaged logarithmically and the ID50 for this value was taken from the table. ID50 values determined at the different time points during the infusion were averaged and this value was included in the tables.

GH secretion [4] = experiment: GH secretion in vivo, rat, intraduodenal (enteral) application, 1 h (basal)
Protocol: as §2, §3, §4, §5, §6, §7, §8

[5] = test system: GHRH stimulated GH secretion; experiment: GH secretion in vivo, rat, intravenous infusion with repeated GHRH stimulation
Protocol: as §2, §4, §5, §6, §7, §8

[6] = test system: GHRH stimulated GH secretion; experiment: GH secretion, rat in urethan anesthesia, intraduodenal + repeated GHRH stimulation; type: in vivo; details: urethan
From the text: No further treatment followed subcutaneous or intraduodenal application. […] This value has been determined in a total of four independent experiments. […] However, in further studies compound 47 has also been tested by the enteral route of administration after repeated stimulation of the GH secretion by GHRH. […] With most of these selected compounds additional in vivo experiments in other models (intraduodenal application followed by repeated stimulation of the GH secretion by GHRH, oral application by gavage of unanesthetized, estradiol primed rats) were performed. Table 4 summarizes data obtained for the inhibition of the stimulated GH secretion after subcutaneous, intraduodenal and intravenous application and the inhibitory effects obtained for different time points during intravenous infusion of selected hydantoins. […] [table]

[7] = test system: GHRH stimulated GH secretion; experiment: GH secretion, rat in urethan anesthesia, subcutaneous + repeated GHRH stimulation; type: in vivo
Protocol: as §5
With most of these selected compounds additional in vivo experiments in other models (intraduodenal application followed by repeated stimulation of the GH secretion by GHRH, oral application by gavage of unanesthetized, estradiol primed rats) were performed. Table 4 summarizes data obtained for the inhibition of the stimulated GH secretion after subcutaneous, intraduodenal and intravenous application and the inhibitory effects obtained for different time points during intravenous infusion of selected hydantoins.

[8] = estradiol implant male rats, oral by gavage, 1 hour

## Cc1cccc2c(CC3C(=O)N(CCCCCN)C(=O)N3S(=O)(=O)c3ccc(Oc4ccc(O)c(Cl)c4)c(C(=O)N(C)C)c3)c[nH]c12 (racemic) [(+/−)-43]
GH secretion [1]; [8]
  GH 1 H ID50: 3000 µg/kg
  MEAN ID50 (GH and prolactin): 2324 µg/kg
GH secretion [1]; estradiol primed male rats
  oral ID50 (GH): 3 mg/kg
Prolactin secretion; estradiol implant male rats, oral by gavage, 1 hour, ø = no effect at this dose
  PROLACT 1 H ID50: 1800 µg/kg
Prolactin secretion; estradiol primed male rats
  oral ID50 (prolactin): 1.8 mg/kg
[2]; 15′
  I.V. SINGLE INJECTION + GHRH ID50 15′: 12.50 µg/kg
[2]; 30′
  I.V. SINGLE INJECTION + GHRH ID50 30′: 31.20 µg/kg
[2]; 60′
  I.V. SINGLE INJECTION + GHRH ID50 60′: 55.00 µg/kg
[2]; 120′
  I.V. SINGLE INJECTION + GHRH ID50 120′: 124.10 µg/kg
GH secretion [3]
  GH vivo s.c. 1 h ID50: 3.79 µg/kg
GH secretion [4]; basal GH secretion, 1 h after intraduodenal application, mostly approximate ID50 from single 10 mg/kg dose, Ø = no effect at this dose, > = extrapolated value
  GH vivo i.d. 1 h ID50: 3.417 mg/kg
GH secretion [4]; enteral (intraduodenal) application
  enteral ID50 (GH secretion): 3.4 mg/kg
GH secretion [4]; intraduodenal, enteral administration of 10 mg/kg
  inhibition at 10 mg/kg: 68%
[5]; Table 4, mean of infusion time points
  INFUS. + GHRH ID50 MEAN: 3.72 µg/kg
[5]; Table 4, urethan, 15′ of infusion
  INFUS. + GHRH ID50 15′: 6.44 µg/kg
[5]; Table 4, urethan, 30′ of infusion
  INFUS. + GHRH ID50 30′: 3.58 µg/kg
[5]; Table 4, urethan, 60′ of infusion
  INFUS. + GHRH ID50 60′: 2.24 µg/kg
[5]; urethane, i.v. infusion, GHRH stimulated
  GH vivo Inf + GHRH ID50 (mean of time points): 3.72 µg/kg/h
[6]; 15′, ø = no effect at this dose
  INTRADUODENAL + GHRH ID50 15′: 1165 µg/kg
[6]; 30′
  INTRADUODENAL + GHRH ID50 30′: 1646 µg/kg
[6]; 60′
  INTRADUODENAL + GHRH ID50 60′: 1419 µg/kg
[6]; 120′, ø = no effect at this dose
  INTRADUODENAL + GHRH ID50 120′: 2872 µg/kg
[7]; 15′
  SUBCUTANEOUS + GHRH ID50 15′: 7.05 µg/kg
[7]; 30′
  SUBCUTANEOUS + GHRH ID50 30′: 7.95 µg/kg
[7]; 60′
  SUBCUTANEOUS + GHRH ID50 60′: 11.35 µg/kg
[7]; 120′
  SUBCUTANEOUS + GHRH ID50 120′: 15.69 µg/kg
